According to article PMC10174317, “^18F-labeled FGFR1 peptide: a new PET probe for subtype FGFR1 receptor imaging” (Frontiers in Oncology, 2023):
Where a SMILES comes first, the peptide text is derived from it. The star is where a group is joined. NOTA = O=C(O)CN1CCN(CC(=O)O)CCN(CC(=O)*)CC1; AEEA = NCCOCCOCC(=O)O

What was measured:
[1] = In vitro stability in normal saline (RP-HPLC); type: physicochemical; conditions: 37°C, 1, 2, 4 and 6 h
Method: (§1) The in vitro and in vivo stability of [^18F]F-FGFR1 was evaluated by RP-HPLC analysis. […] The radiochemical purity of the final compounds was determined by RP-HPLC.

[2] = In vitro stability in fresh human serum (RP-HPLC); type: in vitro ADME; conditions: 37°C, 1, 2, 4 and 6 h
Method: as §1

[3] = Micro-PET/CT biodistribution in RT-112 xenografts; type: in vivo, BALB/c nude mice; conditions: female, BALB/c nude, mouse, iv, total radioactivity, 11.1 MBq tail vein, micro-PET/CT ROI, mean ± SD; for tissue uptake at 0.5 h: 30 min post-injection; for tissue uptake at 1 h: 60 min post-injection; for tissue uptake at 2 h: 120 min post-injection
Method: (§2) All animal experiments were carried out in accordance with the Laboratory Animal Ethical Review of Animal Guidelines of China. BALB/c nude mice (sex, female; age, 4 weeks, body weight range, 19-21 g; China) were used for this study. Four cell lines (2*10^7 cells/nude mouse) were subcutaneously injected into the right forelimb to induce solid tumors. All xenograft nude mice were housed in laminar flow cabinets in a specific pathogen-free (SPF) environment and were provided ad libitum access to food and water at the Laboratory Animal Center of the Fourth Hospital of Hebei Medical University (China). The indication for micro-PET/CT imaging was xenografts with a tumor volume of 50-130 mm^3. All animal experiments strictly adhered to the Principles of the Laboratory Animal Ethical Committee of the Fourth Hospital Hebei Medical University (No. 2020016).
(§3) Xenograft mice (n=5) were fastly injected of 200 µl of [^18F]F-FGFR1 (11.1 MBq) through tail vein. For the in vivo blocking study, RT-112 (FGFR1-high expression) tumor-bearing mice (n = 5) were injected with a tracer that was mixed with 200-fold (1.58 mg) unlabeled peptide to saturate the receptors in the tumors. Mice were anesthetized via 3% isoflurane inhalation (RWD Life Science Inc. China) for induction and 2% isoflurane inhalation for maintenance. Micro-PET/CT imaging was performed on a micro-PET/SPECT/CT machine (NOVEL MEDICAL Equipment Ltd. China). Whole-body scans were performed 30, 60 and 120 min after tracer administration. The CT scanning parameters were 80 kV, 0.5 mA, 2000 ms/frames, and 360 frames; the images were reconstructed with a 512*512 matrix and a slice thickness of 0.18 mm. PET images were acquired with a 140*140 matrix and 10 min of total acquisition time. Reconstructed images were processed with the comprehensive image analysis software Pmod v4.201 (PMOD Technologies LLC. Switzerland). The biodistribution of the major organs (brain, heart, lung, liver, kidney, bone and muscle) and tumor were analyzed by manually outlining the regions of interest (ROIs) of the entire organs and tissue at each time point of the micro-PET/CT scan. The radioactivity accumulated in bone and muscle was measured in the limbs without xenograft tumors.

[4] = Micro-PET/CT biodistribution in A549 xenografts; type: in vivo, BALB/c nude mice; conditions: female, BALB/c nude, mouse, iv, total radioactivity, 11.1 MBq tail vein, micro-PET/CT ROI, mean ± SD; for tissue uptake at 0.5 h: 30 min post-injection; for tissue uptake at 1 h: 60 min post-injection; for tissue uptake at 2 h: 120 min post-injection
Method: as §2, §3

[5] = Micro-PET/CT biodistribution in Calu-3 xenografts; type: in vivo, BALB/c nude mice; conditions: female, BALB/c nude, mouse, iv, total radioactivity, 11.1 MBq tail vein, micro-PET/CT ROI, mean ± SD; for tissue uptake at 0.5 h: 30 min post-injection; for tissue uptake at 1 h: 60 min post-injection; for tissue uptake at 2 h: 120 min post-injection
Method: as §2, §3

[6] = Micro-PET/CT biodistribution in RT-112-blocked xenografts; type: in vivo, BALB/c nude mice; conditions: female, BALB/c nude, mouse, iv, total radioactivity, n=5; for tissue uptake at 0.5 h / tissue uptake at 1 h / tissue uptake at 2 h: RT-112-blocked xenografts (tracer mixed with 200-fold, 1.58 mg, unlabeled peptide), 11.1 MBq tail vein, micro-PET/CT ROI, mean ± SD; for tissue uptake at 0.5 h: 30 min post-injection; for tissue uptake at 1 h: 60 min post-injection
Method: as §2, §3

[7] = bone, n=5, read-out: Biodistribution, Bone
[8] = brain, n=5, read-out: Biodistribution, Brain
[9] = heart, n=5, read-out: Biodistribution, Heart
[10] = kidney, n=5, read-out: Biodistribution, Kidney
[11] = liver, n=5, read-out: Biodistribution, Liver
[12] = lung, n=5, read-out: Biodistribution, Lung
[13] = muscle, n=5, read-out: Biodistribution, Muscle
[14] = tumor, n=5, read-out: Biodistribution, Tumor
[15] = bone, read-out: Biodistribution, Bone
[16] = brain, read-out: Biodistribution, Brain
[17] = heart, read-out: Biodistribution, Heart
[18] = kidney, read-out: Biodistribution, Kidney
[19] = liver, read-out: Biodistribution, Liver
[20] = lung, read-out: Biodistribution, Lung
[21] = muscle, read-out: Biodistribution, Muscle
[22] = tumor, read-out: Biodistribution, Tumor

## CC(C)C[C@H](NC(=O)[C@H](CO)NC(=O)[C@H](CCCCN)NC(=O)[C@H](Cc1c[nH]c2ccccc12)NC(=O)[C@H](CCC(=O)O)NC(=O)[C@H](C)NC(=O)[C@H](CCCCN)NC(=O)COCCOCCNC(=O)CN1CCN(CC(=O)O)CCN(CC(=O)O)CC1)C(=O)NCC(=O)N[C@@H](CCC(=O)O)C(=O)N[C@@H](CCC(=O)O)C(=O)N[C@@H](C)C(=O)N[C@@H](Cc1c[nH]c2ccccc12)C(=O)N[C@@H](Cc1c[nH]cn1)C(=O)N[C@@H](CO)C(=O)N[C@@H](CCCCN)C(=O)O [[^18F]F-FGFR1] ({NOTA-AEEA}-KAEWKSLGEEAWHSK-OH; N-terminus and C-terminus assumed)
[1]
  Radiochemical purity after incubation (in vitro stability): exceeded 90%
[2]
  Radiochemical purity after incubation (in vitro stability): exceeded 90%
[3]; [7]
  tissue uptake at 0.5 h: 0.33 ± 0.1 %ID/g
  tissue uptake at 1 h: 0.35 ± 0.12 %ID/g
  tissue uptake at 2 h: 0.48 ± 0.23 %ID/g
[3]; [8]
  tissue uptake at 0.5 h: 0.66 ± 0.05 %ID/g
  tissue uptake at 1 h: 0.69 ± 0.03 %ID/g
  tissue uptake at 2 h: 0.03 ± 0.01 %ID/g
[3]; [9]
  tissue uptake at 0.5 h: 1.02 ± 0.11 %ID/g
  tissue uptake at 1 h: 0.75 ± 0.06 %ID/g
  tissue uptake at 2 h: 0.1 ± 0.03 %ID/g
[3]; [10]
  tissue uptake at 0.5 h: 9.44 ± 0.58 %ID/g
  tissue uptake at 1 h: 6.85 ± 0.77 %ID/g
  tissue uptake at 2 h: 19 ± 4.82 %ID/g
[3]; [11]
  tissue uptake at 0.5 h: 1.35 ± 0.23 %ID/g
  tissue uptake at 1 h: 1.43 ± 0.06 %ID/g
  tissue uptake at 2 h: 0.17 ± 0.08 %ID/g
[3]; [12]
  tissue uptake at 0.5 h: 0.75 ± 0.11 %ID/g
  tissue uptake at 1 h: 0.65 ± 0.09 %ID/g
  tissue uptake at 2 h: 0.14 ± 0.05 %ID/g
[3]; [13]
  tissue uptake at 0.5 h: 0.24 ± 0.05 %ID/g
  tissue uptake at 1 h: 0.28 ± 0.03 %ID/g
  tissue uptake at 2 h: 0.09 ± 0.02 %ID/g
[3]; [14]
  tissue uptake at 0.5 h: 3.84 ± 0.17 %ID/g
  tissue uptake at 1 h: 2.6 ± 0.1 %ID/g
  tissue uptake at 2 h: 1.35 ± 0.07 %ID/g
[4]; [7]
  tissue uptake at 0.5 h: 0.33 ± 0.1 %ID/g
  tissue uptake at 1 h: 0.35 ± 0.06 %ID/g
  tissue uptake at 2 h: 0.39 ± 0.02 %ID/g
[4]; [8]
  tissue uptake at 0.5 h: 0.61 ± 0.06 %ID/g
  tissue uptake at 1 h: 0.72 ± 0.13 %ID/g
  tissue uptake at 2 h: 0.64 ± 0.17 %ID/g
[4]; [9]
  tissue uptake at 0.5 h: 0.9 ± 0.09 %ID/g
  tissue uptake at 1 h: 0.88 ± 0.04 %ID/g
  tissue uptake at 2 h: 0.64 ± 0.07 %ID/g
[4]; [10]
  tissue uptake at 0.5 h: 9.35 ± 1.87 %ID/g
  tissue uptake at 1 h: 7.89 ± 1.06 %ID/g
  tissue uptake at 2 h: 4.46 ± 0.6 %ID/g
[4]; [11]
  tissue uptake at 0.5 h: 1.53 ± 0.11 %ID/g
  tissue uptake at 1 h: 1.52 ± 0.18 %ID/g
  tissue uptake at 2 h: 1.58 ± 0.08 %ID/g
[4]; [12]
  tissue uptake at 0.5 h: 0.69 ± 0.12 %ID/g
  tissue uptake at 1 h: 0.65 ± 0.04 %ID/g
  tissue uptake at 2 h: 0.53 ± 0.07 %ID/g
[4]; [13]
  tissue uptake at 0.5 h: 0.27 ± 0.03 %ID/g
  tissue uptake at 1 h: 0.27 ± 0.02 %ID/g
  tissue uptake at 2 h: 0.28 ± 0.02 %ID/g
[4]; [14]
  tissue uptake at 0.5 h: 0.87 ± 0.08 %ID/g
  tissue uptake at 1 h: 0.64 ± 0.08 %ID/g
  tissue uptake at 2 h: 0.53 ± 0.04 %ID/g
[5]; [7]
  tissue uptake at 0.5 h: 0.42 ± 0.05 %ID/g
  tissue uptake at 1 h: 0.36 ± 0.05 %ID/g
  tissue uptake at 2 h: 0.37 ± 0.04 %ID/g
[5]; [8]
  tissue uptake at 0.5 h: 0.6 ± 0.04 %ID/g
  tissue uptake at 1 h: 0.66 ± 0.06 %ID/g
  tissue uptake at 2 h: 0.67 ± 0.18 %ID/g
[5]; [9]
  tissue uptake at 0.5 h: 0.79 ± 0.08 %ID/g
  tissue uptake at 1 h: 0.8 ± 0.07 %ID/g
  tissue uptake at 2 h: 0.79 ± 0.17 %ID/g
[5]; [10]
  tissue uptake at 0.5 h: 8.47 ± 0.83 %ID/g
  tissue uptake at 1 h: 7.48 ± 0.6 %ID/g
  tissue uptake at 2 h: 3.02 ± 0.69 %ID/g
[5]; [11]
  tissue uptake at 0.5 h: 1.4 ± 0.07 %ID/g
  tissue uptake at 1 h: 1.54 ± 0.12 %ID/g
  tissue uptake at 2 h: 1.33 ± 0.17 %ID/g
[5]; [12]
  tissue uptake at 0.5 h: 0.62 ± 0.08 %ID/g
  tissue uptake at 1 h: 0.54 ± 0.06 %ID/g
  tissue uptake at 2 h: 0.48 ± 0.04 %ID/g
[5]; [13]
  tissue uptake at 0.5 h: 0.28 ± 0.04 %ID/g
  tissue uptake at 1 h: 0.25 ± 0.03 %ID/g
  tissue uptake at 2 h: 0.3 ± 0.04 %ID/g
[5]; [14]
  tissue uptake at 0.5 h: 0.59 ± 0.08 %ID/g
  tissue uptake at 1 h: 0.58 ± 0.06 %ID/g
  tissue uptake at 2 h: 0.43 ± 0.03 %ID/g
[6]; [15]
  tissue uptake at 0.5 h: 0.31 ± 0.07 %ID/g
  tissue uptake at 1 h: 0.37 ± 0.04 %ID/g
[6]; bone, 120 min post-injection, read-out: Biodistribution, Bone
  tissue uptake at 2 h: 0.35 ± 0.07 %ID/g
[6]; [16]
  tissue uptake at 0.5 h: 0.61 ± 0.03 %ID/g
  tissue uptake at 1 h: 0.61 ± 0.06 %ID/g
[6]; brain, 120 min post-injection, read-out: Biodistribution, Brain
  tissue uptake at 2 h: 0.71 ± 0.1 %ID/g
[6]; [17]
  tissue uptake at 0.5 h: 0.74 ± 0.08 %ID/g
  tissue uptake at 1 h: 0.7 ± 0.07 %ID/g
[6]; heart, 120 min post-injection, read-out: Biodistribution, Heart
  tissue uptake at 2 h: 0.75 ± 0.14 %ID/g
[6]; [18]
  tissue uptake at 0.5 h: 9.35 ± 0.82 %ID/g
  tissue uptake at 1 h: 7.31 ± 0.87 %ID/g
[6]; kidney, 120 min post-injection, read-out: Biodistribution, Kidney
  tissue uptake at 2 h: 3.37 ± 0.54 %ID/g
[6]; [19]
  tissue uptake at 0.5 h: 0.67 ± 0.16 %ID/g
  tissue uptake at 1 h: 0.51 ± 0.09 %ID/g
[6]; liver, 120 min post-injection, read-out: Biodistribution, Liver
  tissue uptake at 2 h: 0.5 ± 0.09 %ID/g
[6]; [20]
  tissue uptake at 0.5 h: 0.6 ± 0.05 %ID/g
  tissue uptake at 1 h: 0.59 ± 0.04 %ID/g
[6]; lung, 120 min post-injection, read-out: Biodistribution, Lung
  tissue uptake at 2 h: 0.51 ± 0.07 %ID/g
[6]; [21]
  tissue uptake at 0.5 h: 0.26 ± 0.03 %ID/g
  tissue uptake at 1 h: 0.29 ± 0.03 %ID/g
[6]; muscle, 120 min post-injection, read-out: Biodistribution, Muscle
  tissue uptake at 2 h: 0.27 ± 0.02 %ID/g
[6]; tumor and liver, RT-112-blocked xenografts (200-fold unlabeled peptide), 120 min post-injection, micro-PET/CT, read-out: Tumor to liver ratio (T/L)
  tissue to tissue ratio at 2 h: 0.85 ± 0.22
[6]; [22]
  tissue uptake at 0.5 h: 0.4 ± 0.02 %ID/g
  tissue uptake at 1 h: 0.39 ± 0.03 %ID/g
[6]; tumor, 120 min post-injection, read-out: Biodistribution, Tumor
  tissue uptake at 2 h: 0.4 ± 0.02 %ID/g
